Assay results from paper PMC6199744, “Development of Chemical Proteomics for the Folateome and Analysis of the Kinetoplastid Folateome” (ACS Infectious Diseases, 2018).
Like-named read-outs stand apart in the source and are kept apart here.

Columns and labels:
Type in all cases: binding
[1] = molecular target: T1, HeLa cell extract proteins (Homo sapiens, UniProt P41252)
T1 construct: endogenous in cells; host or cells: HeLa cell extract
T1 sequence (P41252 1-1262): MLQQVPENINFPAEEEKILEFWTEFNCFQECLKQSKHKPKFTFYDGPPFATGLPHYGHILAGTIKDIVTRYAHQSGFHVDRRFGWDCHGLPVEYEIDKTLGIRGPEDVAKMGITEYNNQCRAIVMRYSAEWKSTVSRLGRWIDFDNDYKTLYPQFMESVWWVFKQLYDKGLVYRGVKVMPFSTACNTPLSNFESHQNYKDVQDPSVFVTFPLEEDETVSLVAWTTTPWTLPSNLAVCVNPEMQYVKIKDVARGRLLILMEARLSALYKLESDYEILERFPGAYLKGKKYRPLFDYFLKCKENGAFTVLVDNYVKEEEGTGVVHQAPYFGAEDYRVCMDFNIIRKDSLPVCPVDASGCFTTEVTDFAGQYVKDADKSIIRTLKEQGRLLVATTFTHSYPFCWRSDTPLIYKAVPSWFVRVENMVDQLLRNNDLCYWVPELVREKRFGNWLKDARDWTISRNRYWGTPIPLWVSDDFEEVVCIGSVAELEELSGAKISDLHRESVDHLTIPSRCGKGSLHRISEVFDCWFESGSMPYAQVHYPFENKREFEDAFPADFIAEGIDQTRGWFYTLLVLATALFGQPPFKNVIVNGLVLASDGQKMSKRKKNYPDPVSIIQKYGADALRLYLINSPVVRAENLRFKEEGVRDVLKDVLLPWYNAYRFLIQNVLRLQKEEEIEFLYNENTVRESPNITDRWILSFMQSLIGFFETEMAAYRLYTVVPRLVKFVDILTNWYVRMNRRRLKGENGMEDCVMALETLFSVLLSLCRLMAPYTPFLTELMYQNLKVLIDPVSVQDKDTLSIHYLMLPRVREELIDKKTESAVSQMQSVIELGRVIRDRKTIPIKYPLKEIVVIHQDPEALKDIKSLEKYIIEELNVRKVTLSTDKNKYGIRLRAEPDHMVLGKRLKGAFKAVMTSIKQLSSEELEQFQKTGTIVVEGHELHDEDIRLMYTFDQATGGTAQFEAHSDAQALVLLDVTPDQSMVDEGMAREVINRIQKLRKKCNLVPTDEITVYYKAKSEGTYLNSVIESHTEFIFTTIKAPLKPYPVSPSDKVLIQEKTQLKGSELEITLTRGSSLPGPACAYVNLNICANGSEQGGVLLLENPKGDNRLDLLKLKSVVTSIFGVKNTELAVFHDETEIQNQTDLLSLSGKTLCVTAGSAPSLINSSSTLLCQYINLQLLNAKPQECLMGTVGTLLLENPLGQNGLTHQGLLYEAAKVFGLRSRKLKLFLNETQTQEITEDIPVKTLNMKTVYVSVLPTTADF

[2] = molecular target: T2, HeLa cell extract proteins (Homo sapiens, UniProt P61978)
T2 construct: endogenous in cells; host or cells: HeLa cell extract

[3] = molecular target: T3, HeLa cell extract proteins (Homo sapiens, UniProt O15260)
T3 construct: endogenous in cells; host or cells: HeLa cell extract

[4] = molecular target: T4, HeLa cell extract proteins (Homo sapiens, UniProt Q15366)
T4 construct: endogenous in cells; host or cells: HeLa cell extract

[5] = molecular target: T5, HeLa cell extract proteins (Homo sapiens, UniProt Q92945)
T5 construct: endogenous in cells; host or cells: HeLa cell extract
T5 sequence (Q92945 1-711): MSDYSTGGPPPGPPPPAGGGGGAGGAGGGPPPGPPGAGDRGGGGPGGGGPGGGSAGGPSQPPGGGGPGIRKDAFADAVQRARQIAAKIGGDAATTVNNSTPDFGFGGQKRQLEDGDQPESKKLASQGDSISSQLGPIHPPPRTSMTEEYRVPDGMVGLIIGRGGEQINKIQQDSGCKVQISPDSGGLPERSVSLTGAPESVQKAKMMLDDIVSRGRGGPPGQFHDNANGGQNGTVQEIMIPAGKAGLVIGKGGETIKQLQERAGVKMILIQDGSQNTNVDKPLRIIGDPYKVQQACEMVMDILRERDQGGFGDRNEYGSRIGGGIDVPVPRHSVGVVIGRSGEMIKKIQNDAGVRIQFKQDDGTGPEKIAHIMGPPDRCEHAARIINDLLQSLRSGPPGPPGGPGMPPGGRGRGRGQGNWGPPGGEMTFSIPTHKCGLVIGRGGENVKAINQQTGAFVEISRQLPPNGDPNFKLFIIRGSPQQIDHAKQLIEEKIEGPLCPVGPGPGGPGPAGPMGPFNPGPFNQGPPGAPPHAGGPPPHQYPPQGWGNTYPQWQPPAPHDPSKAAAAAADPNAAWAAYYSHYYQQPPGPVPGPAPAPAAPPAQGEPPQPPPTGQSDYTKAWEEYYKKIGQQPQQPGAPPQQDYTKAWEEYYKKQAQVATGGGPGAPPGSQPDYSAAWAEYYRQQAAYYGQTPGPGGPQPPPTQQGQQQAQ

[6] = molecular target: T6, HeLa cell extract proteins (Homo sapiens, UniProt P07195)
T6 construct: endogenous in cells; host or cells: HeLa cell extract

[7] = molecular target: T7, HeLa cell extract proteins (Homo sapiens, UniProt P49336)
T7 construct: endogenous in cells; host or cells: HeLa cell extract

[8] = molecular target: T8, HeLa cell extract proteins (Homo sapiens, UniProt P04843)
T8 construct: endogenous in cells; host or cells: HeLa cell extract
T8 sequence (P04843 24-607): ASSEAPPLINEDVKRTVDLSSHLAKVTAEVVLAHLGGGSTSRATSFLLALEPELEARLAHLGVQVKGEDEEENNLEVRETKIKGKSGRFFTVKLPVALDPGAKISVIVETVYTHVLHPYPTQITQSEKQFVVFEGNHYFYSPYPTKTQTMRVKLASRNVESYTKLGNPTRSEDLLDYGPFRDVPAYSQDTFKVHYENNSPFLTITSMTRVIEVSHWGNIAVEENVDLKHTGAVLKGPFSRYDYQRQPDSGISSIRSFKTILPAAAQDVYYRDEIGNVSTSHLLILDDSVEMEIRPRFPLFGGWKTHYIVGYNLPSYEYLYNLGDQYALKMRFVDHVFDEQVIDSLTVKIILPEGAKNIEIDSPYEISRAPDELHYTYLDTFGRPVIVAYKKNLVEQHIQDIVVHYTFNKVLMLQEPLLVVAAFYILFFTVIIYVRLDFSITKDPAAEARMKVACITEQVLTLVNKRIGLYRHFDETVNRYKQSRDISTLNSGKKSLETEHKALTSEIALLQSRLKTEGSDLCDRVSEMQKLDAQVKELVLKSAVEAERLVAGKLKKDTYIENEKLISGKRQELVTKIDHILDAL

[9] = HeLa, protein LDHB (L-LACTATE DEH[…] CHAIN.)

T4 sequence (Q15366 whole entry): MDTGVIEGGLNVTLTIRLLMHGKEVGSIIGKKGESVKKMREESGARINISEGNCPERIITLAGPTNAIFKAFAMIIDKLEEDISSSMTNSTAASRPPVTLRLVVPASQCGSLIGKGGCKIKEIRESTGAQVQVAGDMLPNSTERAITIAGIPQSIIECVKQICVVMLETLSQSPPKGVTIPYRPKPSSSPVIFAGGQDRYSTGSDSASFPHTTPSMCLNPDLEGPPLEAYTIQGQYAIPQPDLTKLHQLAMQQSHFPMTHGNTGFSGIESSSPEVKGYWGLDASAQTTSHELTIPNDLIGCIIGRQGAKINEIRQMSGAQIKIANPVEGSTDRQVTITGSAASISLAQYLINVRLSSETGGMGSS
T7 sequence (P49336 whole entry): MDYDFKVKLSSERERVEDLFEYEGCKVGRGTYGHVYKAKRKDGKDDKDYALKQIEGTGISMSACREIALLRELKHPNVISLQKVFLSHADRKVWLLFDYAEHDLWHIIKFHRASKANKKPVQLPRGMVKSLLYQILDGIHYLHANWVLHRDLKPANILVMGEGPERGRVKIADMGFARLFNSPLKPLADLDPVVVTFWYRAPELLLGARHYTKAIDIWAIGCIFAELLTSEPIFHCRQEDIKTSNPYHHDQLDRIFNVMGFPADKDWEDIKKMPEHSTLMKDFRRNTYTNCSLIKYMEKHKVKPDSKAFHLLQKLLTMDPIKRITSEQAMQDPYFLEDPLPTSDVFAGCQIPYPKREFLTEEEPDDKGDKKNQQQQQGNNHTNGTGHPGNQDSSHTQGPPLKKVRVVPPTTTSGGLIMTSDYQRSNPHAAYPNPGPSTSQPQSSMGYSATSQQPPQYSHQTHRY
T6 sequence (P07195 whole entry): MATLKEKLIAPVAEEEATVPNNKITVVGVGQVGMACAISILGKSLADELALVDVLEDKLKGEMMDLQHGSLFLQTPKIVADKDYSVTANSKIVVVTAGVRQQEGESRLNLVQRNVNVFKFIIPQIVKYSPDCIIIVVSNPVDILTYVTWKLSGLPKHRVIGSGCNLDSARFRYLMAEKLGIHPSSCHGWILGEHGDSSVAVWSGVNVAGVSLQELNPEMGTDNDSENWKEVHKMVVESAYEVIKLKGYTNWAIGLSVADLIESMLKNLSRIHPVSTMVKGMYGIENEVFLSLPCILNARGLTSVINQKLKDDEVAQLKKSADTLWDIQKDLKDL
T3 sequence (O15260 whole entry): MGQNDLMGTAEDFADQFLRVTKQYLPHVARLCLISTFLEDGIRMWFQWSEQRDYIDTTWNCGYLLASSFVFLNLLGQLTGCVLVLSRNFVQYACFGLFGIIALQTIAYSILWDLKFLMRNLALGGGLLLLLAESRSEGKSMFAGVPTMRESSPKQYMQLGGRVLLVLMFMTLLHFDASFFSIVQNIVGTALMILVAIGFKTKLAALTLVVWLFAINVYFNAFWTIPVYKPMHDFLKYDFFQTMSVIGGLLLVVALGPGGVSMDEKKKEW

| SMILES | fold changes relative to vehicle control ([1]; HeLa, protein IARS) | fold changes relative to vehicle control ([2]; protein HNRNPK, HeLa) | fold changes relative to vehicle control ([3]; captured protein SURF4, HeLa) | fold changes relative to vehicle control ([4]; protein PCBP2, HeLa) | fold changes relative to vehicle control ([5]; captured protein KHSRP, HeLa) | fold changes relative to vehicle control ([7]; captured protein CDK8, HeLa) | fold changes relative to vehicle control ([8]; protein RPN1, HeLa) | fold changes relative to vehicle control ([1]; HeLa, captured protein IARS) | fold changes relative to vehicle control ([2]; HeLa, protein HNRNPK) | fold changes relative to vehicle control ([3]; HeLa, captured protein SURF4) | fold changes relative to vehicle control ([5]; HeLa, protein KHSRP) | fold changes relative to vehicle control ([6]; HeLa, captured protein LDHB) | fold changes relative to vehicle control ([7]; protein CDK8, HeLa) | fold changes relative to vehicle control ([8]; HeLa, protein RPN1) | also measured |
| --- | --- | --- | --- | --- | --- | --- | --- | --- | --- | --- | --- | --- | --- | --- | --- |
| CCCCCCOc1cccc(Cc2cnc(N)nc2N)c1 [compound 2] | 1.22 | 1.39 | 1 | 1.28 | 0.96 | 0.8 | 1.28 | – | – | – | – | – | – | – | fold changes relative to vehicle control ([6]; HeLa, protein LDHB (L-LACTATE DEHYDROGENASE B CHAIN.)): 2.97 fold |
| NCCOCCOCC(=O)Nc1nc2ncc(CNc3ccc(C(=O)NC(CCC(=O)O)C(=O)O)cc3)nc2c(=O)[nH]1 (centres unmarked) [compound 6] | – | – | – | 1.04 | – | – | – | 1.03 | 1.13 | 0.95 | 0.96 | 1.42 | 0.9 | 0.96 | – |
| CCCCCCOc1ccc(Cc2cnc(N)nc2N)cc1 [compound 1] | 1.15 | 0.99 | 0.9 | 0.96 | 0.74 | 0.96 | 1.09 | – | – | – | – | – | – | – | fold changes relative to vehicle control [6, 9]: 1.75 fold |
| Nc1nc2c(c(=O)[nH]1)N(C=O)C(CNc1ccc(C(=O)N[C@@H](CCC(=O)O)C(=O)O)cc1)CN2 (some centres unmarked) [LEU, leucovorin] | – | – | – | 0.85 | – | – | – | 1.01 | 0.94 | 0.86 | 0.9 | 1.21 | 1.14 | 0.88 | – |
| NCCCNc1ccc(C(=O)NC(CCC(=O)O)C(=O)O)cc1 (centres unmarked) [compound 7] | – | – | – | 0.96 | – | – | – | 1.1 | 0.95 | 0.92 | 0.95 | 0.96 | 1.01 | 0.94 | – |
| Nc1nc2[nH]cc(CCc3ccc(C(=O)N[C@@H](CCC(=O)O)C(=O)O)cc3)c2c(=O)[nH]1 [PTX, pemetrexed] | – | – | – | – | – | – | – | – | – | – | – | – | – | – | fold changes relative to vehicle control [1]: 0.96; fold changes relative to vehicle control [2]: 0.96; fold changes relative to vehicle control [3]: 0.9; fold changes relative to vehicle control [4]: 1.03; fold changes relative to vehicle control [5]: 0.97; fold changes relative to vehicle control [6]: 1.35; fold changes relative to vehicle control [7]: 0.77; fold changes relative to vehicle control [8]: 0.96 |
| Nc1nc2cccc(-c3ccccc3)c2n1Cc1ccc(Cl)c(Cl)c1 [compound 3] | 1.28 | 1.02 | 1.03 | 0.91 | 0.84 | 1.03 | 1.02 | – | – | – | – | – | – | – | fold changes relative to vehicle control [6, 9]: 0.94 fold |
